A short description of data set [1]: Size and polydispersity index (PDI) of the lipid nanoparticle by dynamic light scattering. Type of data set: physicochemical. As to conditions: LNP encapsulating eGFP mRNA, ionizable lipid/DOPE/cholesterol/DMG-PEG2000 50/10/48.25/1.25 mol%, N/P 12; for Particle size: in nm (unit assumed). In short, it runs like this:
(§1)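 LNPs were made by microfluidic mixing of ionizable lipid/DOPE/cholesterol/DMG-PEG2000 (50/10/48.25/1.25 mol%) in ethanol with eGFP mRNA in 20 mM citrate pH 6.1, N/P 12, then ultrafiltered into DPBS and 0.2 µm filtered. Size and PDI by DLS at 173° backscatter; encapsulation by Ribogreen.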

Data set [2] can be described thus: In vitro transfection of cells with eGFP-mRNA lipid nanoparticle (LNP preparation), fluorescence imaging and flow cytometry. Type of data set: cell-based, mouse. As to conditions: mouse, dc2.4 cells, 200 ng of mRNA per well, after 24 hours; read-out: Cell viability, %. A digest of the protocol:
(§2)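 Mouse bone marrow-derived DC2.4 dendritic cells seeded at 2 × 10^5 cells/well in DMEM with 10% FBS, transfected with eGFP-mRNA LNPs the next day at 37 °C, 5% CO2. After 24 hours, viability, eGFP-positive rate and mean fluorescence intensity read by fluorescence imaging and flow cytometry.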

The next data set has as its system DC2.4 cells. The description is as above. Type of data set: cell-based, mouse. To be noted: eGFP positivity rate, DC2.4 cells, 200 ng of mRNA per well, after 24 hours. In short, it runs like this:
as §2

Data set [3] is described as follows: Encapsulation efficiency of the lipid nanoparticle (eGFP mRNA) by Ribogreen method. The data set is classed as physicochemical. As to conditions: LNP encapsulating eGFP mRNA, ionizable lipid/DOPE/cholesterol/DMG-PEG2000 50/10/48.25/1.25 mol%, N/P 12. A digest of the protocol: as §1

Take `CCCCCCCCCCCCOC(=O)CCCCCCCN(CCCO)CCCN(CCCCCCCC(=O)OCCCCCCCCCCCC)CCCCCCCC(=O)OCCCCCCCCCCCC` [Example 51, Didodecyl 8,8'-((3-((8-(dodecyloxy)-8-oxooctyl)(3-hydroxypropyl)amino)propyl)azanediyl)dioctanoate]: in data set [1], the PDI worked out at 0.18 and the Particle size is 75.07. Besides, the viability at 24 h in data set [2] was determined as 92%. Further, in the data set on DC2.4 cells, the “Positive rate, %” value was 99.64%. For the same compound, the “Encapsulation rate, %” value in data set [3] is 99.28%.
On to `CCCCCC/C=C\COC(=O)CCCCCCCN(CCO)CCCN(CCCCCCCC(=O)OC/C=C\CCCCCC)CCCCCCCC(=O)OC/C=C\CCCCCC` [Example 6, Di((Z)-non-2-en-1-yl)8,8'-((3-((2-hydroxyethyl)(8-(((Z)-non-2-en-1-yl)oxo)-8-oxooctyl)amino)propyl)azanediyl)dioctanoate], for which the PDI in data set [1] was 0.13. The viability at 24 h in data set [2] is 80.5%. For the same compound, the “Positive rate, %” value with DC2.4 cells worked out at 85.29%. Besides, the “Encapsulation rate, %” value in data set [3] was determined as 92.30%.
Take `CCCCC/C=C\C/C=C\CCCCCCCCOC(=O)CCCCCCCN(CCO)CCCN(CCCCCCCC(=O)OCCCCCCCC/C=C\C/C=C\CCCCC)CCCCCCCC(=O)OCCCCCCCC/C=C\C/C=C\CCCCC` [Example 24, Di((9Z,12Z)-octadeca-9,12-dien-1-yl)8,8'-((3-((2-hydroxyethyl)(8-(((9Z,12Z)-octadeca-9,12-dien-1-yl)oxo)-8-oxooctyl)amino)propyl)azanediyl)dioctanoate]: the PDI in data set [1] came to 0.15. In addition, the viability at 24 h in data set [2] was 76%. Further, the “Positive rate, %” value in the data set with DC2.4 cells is 92.27%. The “Encapsulation rate, %” value in data set [3] is 97.73%.
Regarding `CCCCCCCCCCCCCOC(=O)CN(CCCCO)CCCN(CC(=O)OCCCCCCCCCCCCC)CC(=O)OCCCCCCCCCCCCC` [Example 78, Ditridecyl 2,2'-((3-((4-hydroxybutyl)(2-oxo-2-(tridecyloxy)ethyl)amino)propyl)azanediyl)diacetate], in data set [1], the PDI was determined as 53.66 and the Particle size amounted to 99.86. In data set [2], the viability at 24 h amounted to 91.7%. For the same compound, in the data set on DC2.4 cells, the “Positive rate, %” value is 81.35%. For the same compound, the “Encapsulation rate, %” value in data set [3] is 99.86%.
For `CCCCCCCCCCCOC(=O)CCCN(CCCO)CCCN(CCCC(=O)OCCCCCCCCCCC)CCCC(=O)OCCCCCCCCCCC` [Example 64, Diundecyl 4,4'-((3-((3-hydroxypropyl)(4-oxo-4-(undecyloxy)butyl)amino)propyl)azanediyl)dibutanoate] the same measures were 0.19, 90.58, 64.6%, 99.18% and 98.93%.
In the case of `CCCCC/C=C\C/C=C\CCCCCCCCOC(=O)CCCCN(CCCO)CCCN(CCCCC(=O)OCCCCCCCC/C=C\C/C=C\CCCCC)CCCCC(=O)OCCCCCCCC/C=C\C/C=C\CCCCC` [Example 111], in data set [1], the PDI is on record as 0.12 and the Particle size was 96.92. In addition, the viability at 24 h in data set [2] was 91%. For the same compound, the “Positive rate, %” value in the data set on DC2.4 cells stood at 95.82%. The “Encapsulation rate, %” value in data set [3] is listed as 92.91%.
In data set [1], `CCCCCCCCCCCOC(=O)CCCCN(CCCO)CCCN(CCCCC(=O)OCCCCCCCCCCC)CCCCC(=O)OCCCCCCCCCCC` [Example 42, Diundecyl 5,5'-((3-((3-hydroxypropyl)(5-oxo-5-(undecyloxy)pentyl)amino)propyl)azadiyl)dipentanoate] showed a PDI of 0.11 and a Particle size of 98.73. Moreover, the viability at 24 h in data set [2] is 94.1%. Also, the “Positive rate, %” value in the data set on DC2.4 cells was found to be 96.69%. The “Encapsulation rate, %” value in data set [3] is listed as 98.13%.
For `CCCCCCCCCCCCOC(=O)CCCCCN(CCCCO)CCCN(CCCCCC(=O)OCCCCCCCCCCCC)CCCCCC(=O)OCCCCCCCCCCCC` [Example 46, Didodecyl 6,6'-((3-((6-(dodecyloxy)-6-oxohexyl)(4-hydroxybutyl)amino)propyl)azanediyl)dihexanoate] the same measures were 0.22, 72.75, 97.4%, 96.64% and 99.86%.
In data set [1], `CCCCC/C=C\C/C=C\CCCCCCCCOC(=O)CCCN(CCCO)CCCN(CCCC(=O)OCCCCCCCC/C=C\C/C=C\CCCCC)CCCC(=O)OCCCCCCCC/C=C\C/C=C\CCCCC` [Example 108] had a PDI of 0.13 and a Particle size of 95.34. Besides, the viability at 24 h in data set [2] was determined as 92.3%. For the same compound, in the data set on DC2.4 cells, the “Positive rate, %” value was 93.99%. In data set [3], the “Encapsulation rate, %” value is 92.30%.
For `CCCCCCCCCCCCCOC(=O)CN(CCCO)CCCN(CC(=O)OCCCCCCCCCCCCC)CC(=O)OCCCCCCCCCCCCC` [Example 77, Ditridecyl 2,2'-((3-((3-hydroxypropyl)(2-oxo-2-(tridecyloxy)ethyl)amino)propyl)azanediyl)diacetate] the same measures were 70.33, 99.78, 83.9%, 90.71% and 99.78%.
In data set [1], `CCCCCCCCCCCCCCOC(=O)CCCCCCN(CCCO)CCCN(CCCCCCC(=O)OCCCCCCCCCCCCCC)CCCCCCC(=O)OCCCCCCCCCCCCCC` [Example 57, Ditetradecyl 7,7'-((3-((3-hydroxypropyl)(7-oxo-7-(tetradecyloxy)heptyl)amino)propyl)azanediyl)diheptanoate] gave a PDI of 0.17 and a Particle size of 68.32. Moreover, in data set [2], the viability at 24 h was found to be 76.9%. The “Positive rate, %” value with DC2.4 cells is on record as 97.36%. Further, the “Encapsulation rate, %” value in data set [3] was determined as 99.36%.
For `CCCCCCCCCCCCOC(=O)CCCCCCCN(CCO)CCCN(CCCCCCCC(=O)OCCCCCCCCCCCC)CCCCCCCC(=O)OCCCCCCCCCCCC` [Example 50, Didodecyl 8,8'-((3-((8-(dodecyloxy)-8-oxooctyl)(2-hydroxyethyl)amino)propyl)azanediyl)dioctanoate] the same measures were 0.20, 76.74, 90.4%, 99.74% and 99.63%.
For `CCCCCC/C=C\COC(=O)CCCN(CCO)CCCN(CCCC(=O)OC/C=C\CCCCCC)CCCC(=O)OC/C=C\CCCCCC` [Example 16, Di((Z)-non-2-en-1-yl)4,4'-((3-((2-hydroxyethyl)(4-(((Z)-non-2-en-1-yl)oxo)-4-oxobutyl)amino)propyl)azanediyl)dibutanoate] the same measures were 0.18, 99.65, 84.6%, 94.18% and 86.73%.
As to `CCCCCC/C=C\COC(=O)CCCCCN(CCO)CCCN(CCCCCC(=O)OC/C=C\CCCCCC)CCCCCC(=O)OC/C=C\CCCCCC` [Example 25, Di((Z)-non-2-en-1-yl)6,6'-((3-((2-hydroxyethyl)(6-(((Z)-non-2-en-1-yl)oxo)-6-oxohexyl)amino)propyl)azanediyl)dihexanoate], the PDI in data set [1] is reported as 0.17. Also, the viability at 24 h in data set [2] was 76.6%. In addition, the “Positive rate, %” value in the data set with DC2.4 cells amounted to 94.29%. Also, the “Encapsulation rate, %” value in data set [3] is 98.27%.
Consider `CCCCCCCCCCOC(=O)CCCN(CCO)CCCN(CCCC(=O)OCCCCCCCCCC)CCCC(=O)OCCCCCCCCCC` [Example 93, Decyl 4-(20-(2-hydroxyethyl)-12,24-dioxo-16,20-diaza-11,25-dioxapentatriacontane-16-yl)butanoate], for which, in data set [1], the PDI was determined as 0.17 and the Particle size stood at 98.21. The viability at 24 h in data set [2] is 82.6%. In addition, the “Positive rate, %” value with DC2.4 cells was 85.37%. For the same compound, in data set [3], the “Encapsulation rate, %” value was 93.28%.
Consider `CCCCCOC(=O)CCCCCCCN(CCO)CCCN(CCCCCCCC(=O)OCCCCC)CCCCCCCC(=O)OCCCCC` [Example 5, Dipentyl 8,8'-((3-((2-hydroxyethyl)(8-oxo-8-(pentyloxy)octyl)amino)propyl)azanediyl)dioctanoate], for which the PDI in data set [1] came out at 0.16. Besides, the viability at 24 h in data set [2] stood at 86.6%. For the same compound, the “Positive rate, %” value in the data set with DC2.4 cells was 83.41%. Further, the “Encapsulation rate, %” value in data set [3] amounted to 94.14%.
In the case of `CCCCCCCCCCCCCOC(=O)CCN(CCO)CCCN(CCC(=O)OCCCCCCCCCCCCC)CCC(=O)OCCCCCCCCCCCCC` [Example 70, Ditridecyl 3,3'-((3-((2-hydroxyethyl)(3-oxo-3-(tridecyloxy)propyl)amino)propyl)azanediyl)dipropionate], the PDI in data set [1] is reported as 0.11. Further, the viability at 24 h in data set [2] was determined as 91.2%. In addition, the “Positive rate, %” value with DC2.4 cells was 99.07%. The “Encapsulation rate, %” value in data set [3] is given as 97.26%.
In data set [1], `CCCCCCCCCCCCCOC(=O)CCCCN(CCO)CCCN(CCCCC(=O)OCCCCCCCCCCCCC)CCCCC(=O)OCCCCCCCCCCCCC` [Example 39, Ditridecyl 5,5'-((3-((2-hydroxyethyl)(5-oxo-5-(tridecyloxy)pentyl)amino)propyl)azadiyl)dipentanoate] yielded a PDI of 0.13 and a Particle size of 89.31. Moreover, the viability at 24 h in data set [2] turned out to be 96.9%. For the same compound, the “Positive rate, %” value with DC2.4 cells turned out to be 91.26%. Also, the “Encapsulation rate, %” value in data set [3] came out at 97.58%.

Usually viability stands for a per cent measure of how many cells are alive, often set against a control.
